Assay results published in patent US20120277312A1, “Ethylgallate and Related Compounds as a Treatment for Sepsis and Septic Shock” (priority 2009, published 2012).

Experiment: Hydrogen peroxide scavenging (Amplex Red assay, electrochemical techniques, glucosidase/glucose assay)
Type: biochemical
Conditions: multiple methodologies
Description: This generation appears to involve the mechanism described by Wentworth et al in which proteins can utilize water as a catalyst to generate H2O2 (12) Once formed by lysozyme, H2O2 then reacts with intrinsic catalase to form a species of catalase termed Compound I (2) Compound I then acts to generate cyclic-guanosine monophosphate which in turn causes vasodilation. […] These as well as other mechanisms may account for the efficacy of ethyl-gallate treatment in septic shock.

CCOC(=O)c1cc(O)c(O)c(O)c1 [ethyl gallate]
scavenging of hydrogen peroxide: can scavenge
